We go through five compounds from ChEMBL document CHEMBL1153246, “Discovery of novel taspine derivatives as antiangiogenic agents” (Bioorg Med Chem Lett, 2010).

For data set [1], the system named is Caco-2. Kind of data set: Antiproliferative activity against human Caco-2 cells. It is filed as functional, cell-based.
A short description of data set [2]: Dissociation constant, pKa. The settings on record: pH 7.4.
Data set [3] in a line: Polar surface area. The settings on record: pH 7.4.
Data set [4] is described as follows: Solubility of the compound.
Data set [5] concerns A549. Briefly: Antiproliferative activity against human A549 cells. The data set is classed as functional, cell-based.
The nature of data set [6]: Ratio of solubility for drug to taspine. It is filed as physicochemical.
In data set [7] the test system is ECV-304. Briefly: Antiproliferative activity against human ECV304 cells. The data set is classed as functional, cell-based.
Data set [8] has as its system Caco-2. Briefly: Ratio of IC50 drug to IC50 taspine against human Caco-2 cells. It is filed as functional.
In data set [9] the test system is ECV-304. Kind of data set: Ratio of IC50 drug to IC50 taspine against human ECV304 cells. It is filed as functional.

By IC50 is commonly meant the concentration needed to halve the response being measured. Higher therefore signals a need for much substance. As a reminder, the pKa is the pH at which an ionisable group is half protonated. As a reminder, the solubility is the dissolved amount per volume that the medium holds. Lower therefore signals a poorly soluble substance.

≈ marks a conversion by molar mass, not a printed value.

In the case of `COC(=O)c1cc(OC(=O)c2ccc(OC)c(O)c2)c(OC)cc1CCN(C)C`, the values for the IC50 in data set [1] and in data set [5] were 11000 nM and 453 nM, respectively. In data set [2], this compound showed a pKa of 8.75. In data set [3], this compound displayed a PSA of 94.5 Å2. For the same compound, the concentration in solution in data set [4] (solubility) was 140 µg/mL (≈ 347 µM). In addition, the Ratio in data set [6] is 13.

`COC(=O)c1cc(OC(=O)c2ccc(OC)c(O)c2)c(OC)cc1CCNc1ccc(F)c(Cl)c1` registered a pKa in [2] of 3.65. In data set [3], the PSA amounted to 103 Å2. In addition, in data set [4], the solubility amounted to 61 µg/mL (≈ 121 µM). Further, the figures for the IC50 in data set [5] and in data set [7] were 180 nM and 61 nM, respectively.

In the case of `COC(=O)c1ccc(OC)c(OC(=O)c2cc(O)c(OC)cc2CCN(C)C)c1`, the half-inhibitory concentration (IC50) turned out to be 3100 nM in [1] and 111 nM in data set [5]. The same compound came in with a pKa in [2] of 8.57. This compound also had a PSA in [3] of 94.5 Å2. The compound further returned a solubility in data set [4] of 130 µg/mL (≈ 322 µM).

On to `COC(=O)c1cc(OC(=O)c2ccc(OC)c(O)c2)c(OC)cc1CCN1CCOCC1`, for which the IC50 in [1] was determined as 52.5 nM; in data set [5] it was 158 nM; in data set [7] it was 2.67 nM. Also, the pKa in [2] amounted to 7.28. Also, the PSA in data set [3] was determined as 104 Å2. In addition, the “Ratio IC50” value was 3 in data set [8] and 10 in data set [9]. Further, the concentration in solution in data set [4] (solubility) was 270 µg/mL (≈ 606 µM). The Ratio in data set [6] worked out at 13.

In the case of `COc1ccc2c(=O)oc3c(OC)cc(CCN(C)C)c4c(=O)oc1c2c34` [TASPINE], the IC50 is 153 nM in data set [1], 4.18 nM in data set [5] and 22.3 nM in [7]. In addition, in data set [2], the pKa was found to be 8.21. In [3], this compound displayed a PSA of 74.3 Å2. This compound also came in with a solubility in [4] of 21 µg/mL (≈ 56.9 µM).
